Values joined by “and” are separate entries in the source; they are usually repeats but may differ in a detail not shown here. Equal entries are not always repeated. “Also recorded” adds a separate entry of the source. Where two headings read alike, the source gives them in different places. Marks after values point to notes of the source that are not given here.
How the values were obtained:
anti-Chlamydia abzymes [1] = type: biochemical, human; parameters: key to In-vitro Inhibition: + = inhibition; − = no inhibition; details: for In-vitro Inhibition: abzyme activity, metal chelators; for Anti-Abzyme activity: control 21.7
anti-Chlamydia abzymes [2] = type: biochemical, human
lesion IgG = type: biochemical, human
anti-Chlamydia IgG = type: in vivo, human; details: immuno-fluorescent assay, group summary
patients with angina = experiment: Clinical condition of angina patients treated with anti-microbial agent; type: in vivo, human; details: for Clinical condition: individual patients; for tablets of nitroglycerine daily: patient 5
[3] = system: patients with ischaemic heart disease; experiment: Severity of angina pectoris by modified Rose-Blackburn Questionnaire; type: in vivo, human; parameters: Score by modified Rose-Blackburn Questionnaire / Rose Blackthorn Score Day 0: scale not given here; details: for Score by modified Rose-Blackburn Questionnaire: individual patients (last line of each group: mean)
Excerpt: The progression of the clinical condition of the patients was monitored by the use of the modified Bruce Protocol for treadmill exercise/stress ECG testing and on the Rose-Blackburn Questionnaire (Cardiovascular Survey Methods. WHO, Geneva, 1968).

anti-Chlamydia abzymes [4] = type: in vivo, human; details: for Anti-Chlamydia abzyme activity: individual patients (last line: mean); for Anti-Chlamydia abzymes activity: Table 27 group summary; for individuals positive for abzymes / individuals positive for abzymes (fraction) / abzyme activity of individuals reporting taking aspirin: + aspirin
[5] = human, in vivo
[6] = Chlamydia treated with 1% detergents or 10% solution of DMSO
[7] = IHD patients negative for anti-Chlamydia IgG, individual patients

With `[N-]=[N+]=[N-].[Na+]` [NaN3] the “Result (inhibition of abzymes)” value (anti-Chlamydia abzymes [1]) was “Positive”.
For “octylphenoxypoly(ethyleneoxy)ethanol [IGEPAL CA-630]”, the “development of lipid oxidation reaction” value (anti-Chlamydia abzymes [2]; [6]) was “completely abrogated” and the “oxidation of the lipids in the bacteria by the extracted abzymes” value (anti-Chlamydia abzymes [2]; Chlamydia treated with non-ionic detergent) was “abolished”.
With `N.N.O=S(=O)(O)O` [ammonium sulphate] the “lipid oxidising reaction in the test system” value (shortened to “lipid oxidising reaction”) (anti-Chlamydia abzymes [2]) was “no lipid oxidising reaction”.
With `O=C[O-].[Na+]` [sodium formate] the “Level of MDA production by 0.82 μg of lesion IgG” value (“Level of MDA production” below) (lesion IgG; LDL 480 μg of protein, +0.1 M agent, control 0.49 ± 0.023) was 0 µM.
In the case of `C=O` [formalin], the “lipid oxidising reaction” value (anti-Chlamydia abzymes [2]) is reported as “no lipid oxidising reaction”.
For `O=C(O)c1ccccc1` [benzoic acid], the “Level of MDA production” value (lesion IgG) was 0 µM.
In the case of `O=C(O)CN(CCN(CC(=O)O)CC(=O)O)CCN(CC(=O)O)CC(=O)O` [DTPA], the “Result (inhibition of abzymes)” value (anti-Chlamydia abzymes [1]; 10 μM of each agent) is reported as “Negative” and the “In-vitro Inhibition” value (anti-Chlamydia abzymes [1]) is reported as “−”.
With “polyoxyethylene Octyl phenyl ether [TRITON X-100]” the “development of lipid oxidation reaction” value (anti-Chlamydia abzymes [2]) was “completely abrogated” and the “oxidation of the lipids in the bacteria by the extracted abzymes” value (anti-Chlamydia abzymes [2]) was “abolished”.
For `O=[N+]([O-])O[C@H]1CO[C@H]2[C@@H]1OC[C@H]2O[N+](=O)[O-]` [Isosorbide Dinitrate], the Anti-Abzyme activity (anti-Chlamydia abzymes [1]; 42 μM) was 0 μM MDA/ml and the Anti-Abzyme activity (anti-Chlamydia abzymes [1]; 211 μM) was 0 μM MDA/ml.
For `CCCCCCCCCCCCOS(=O)(=O)[O-].[Na+]` [SDS], the “lipid oxidising reaction” value (anti-Chlamydia abzymes [2]) was “no lipid oxidising reaction”.
For `C[S+](C)[O-]` [DMSO], the “development of lipid oxidation reaction” value (anti-Chlamydia abzymes [2]; [6]) was “completely abrogated” and the “Level of MDA production” value (lesion IgG; LDL 480 μg of protein, +1% agent, control 0.49 ± 0.023) was 0 µM.
Work on `O=[N+]([O-])OCC(CO[N+](=O)[O-])O[N+](=O)[O-]` [Glyceryl Trinitrate] yielded an Anti-Abzyme activity (anti-Chlamydia abzymes [1]; 4.4 μM) of 0 μM MDA/ml, an Anti-Abzyme activity (anti-Chlamydia abzymes [1]; 22 μM) of 0 μM MDA/ml and an Anti-Abzyme activity (anti-Chlamydia abzymes [1]; 44 μM) of 0 μM MDA/ml. The Anti-Abzyme activity (anti-Chlamydia abzymes [1]; 220 μM) was 0 μM MDA/ml.
For `CC[C@H]1OC(=O)[C@H](C)[C@@H](O[C@H]2C[C@@](C)(OC)[C@@H](O)[C@H](C)O2)[C@H](C)[C@@H](O[C@@H]2O[C@H](C)C[C@H](N(C)C)[C@H]2O)[C@](C)(O)C[C@@H](C)CN(C)[C@H](C)[C@@H](O)[C@]1(C)O` [Azithromycin], the “Anti-Chlamydia IgG” value (anti-Chlamydia IgG; 60 days after treatment) was 0 (titers)^−1, the “Anti-Chlamydia IgG” value (anti-Chlamydia IgG; before treatment) was 43.6 (titers)^−1 and the Clinical condition (patients with angina; after 15 days of treatment) was “angina class II;; also recorded: Stable condition;”. For the same molecule, the Clinical condition (patients with angina; before treatment) was “angina class III;; also recorded: Unstable angina;”, the “tablets of nitroglycerine daily” value (patients with angina; after 15 days of treatment) was 5 tablets of nitroglycerine and the “tablets of nitroglycerine daily” value (patients with angina; before treatment) was 10 tablets of. For the same molecule, the “Rose Blackthorn Score Day 0” value [3, 7] was 21 and 22 and 12 and 19, the “Clinical Status modified Rose G., Blackburn H. Questionnaire” value ([3]; group summary, before treatment) was 19.4 ± 1.79 and the “Score by modified Rose-Blackburn Questionnaire” value ([3]; 60 days after start of the treatment) was 19 and 10 and 13 and 16 and 18 and 15 (2×) and 8 and 11 and 17 (2×). The “Score by modified Rose-Blackburn Questionnaire” value ([3]; before treatment) was 22 and 12 and 19 and 23 and 21 and 25 (3×) and 16 and 10 and 15 and 19.4 ± 1.79, the “Abzyme activity Day 0” value (anti-Chlamydia abzymes [4]; [7]) was 15 and 90 and 80 and 40 and the “Abzyme activity Day 60” value (anti-Chlamydia abzymes [4]; [7]) was 6.7 (2×) and 3.3 and 0. For the same molecule, the Anti-Chlamydia abzyme activity (anti-Chlamydia abzymes [4]; Table 15, 15 days after the start of the treatment) was 60 μM MDA/ml and 0 μM MDA/ml (3×) and 8.3 μM MDA/ml and 6.7 μM MDA/ml (3×) and 33 μM MDA/ml and 75 μM MDA/ml and 19.6 μM MDA/ml, the Anti-Chlamydia abzyme activity (anti-Chlamydia abzymes [4]; Table 15, 30 days after the start of the treatment) was 37 μM MDA/ml and 0 μM MDA/ml (3×) and 28 μM MDA/ml and 3.3 μM MDA/ml (2×) and 10 μM MDA/ml and 78 μM MDA/ml and 17.7 μM MDA/ml and the Anti-Chlamydia abzyme activity (anti-Chlamydia abzymes [4]; Table 15, stable angina, 500 mg once per day, before treatment) was 40 μM MDA/ml (2×) and 50 μM MDA/ml and 15 μM MDA/ml and 10 μM MDA/ml and 35 μM MDA/ml and 85 μM MDA/ml and 30 μM MDA/ml (2×) and 45.9 μM MDA/ml and 90 μM MDA/ml and 80 μM MDA/ml. The Anti-Chlamydia abzymes activity (anti-Chlamydia abzymes [4]; 60 days after treatment) was 1.6 ± 0.89 ^ μM/MDA/ml, the Anti-Chlamydia abzymes activity (anti-Chlamydia abzymes [4]; before treatment) was 47.5 ± 8.96 μM/MDA/ml and the Anti-Chlamydia abzyme activity (anti-Chlamydia abzymes [4]; Therapy Group A, IHD, 500 mg daily, before treatment) was 90 μM MDA/ml and 80 μM MDA/ml and 40 μM MDA/ml (2×) and 50 μM MDA/ml and 15 μM MDA/ml and 28 μM MDA/ml and 35 μM MDA/ml and 85 μM MDA/ml and 30 μM MDA/ml (2×) and 47.5 μM MDA/ml. The Anti-Chlamydia abzyme activity (anti-Chlamydia abzymes [4]; Therapy Group A, 15 days after the start of treatment) was 6.7 μM MDA/ml (3×) and 0 μM MDA/ml (3×) and 60* μM MDA/ml and 8.3 μM MDA/ml and 33 μM MDA/ml and 75* μM MDA/ml and 52* μM MDA/ml and 22.5 μM MDA/ml, the Anti-Chlamydia abzyme activity (anti-Chlamydia abzymes [4]; Therapy Group A, 30 days after the start of treatment) was 78** μM MDA/ml and 0 μM MDA/ml (3×) and 37* μM MDA/ml and 28** μM MDA/ml and 3.3 μM MDA/ml (2×) and 10 μM MDA/ml (2×) and 78* μM MDA/ml and 22.5 μM MDA/ml and the Anti-Chlamydia abzyme activity (anti-Chlamydia abzymes [4]; Therapy Group A, 45 days after the start of treatment) was 17 μM MDA/ml and 0 μM MDA/ml (5×) and 20* μM MDA/ml and 43* μM MDA/ml and 3.3 μM MDA/ml (2×) and 5.0 μM MDA/ml and 7.4 μM MDA/ml. For the same molecule, the Anti-Chlamydia abzyme activity (anti-Chlamydia abzymes [4]; Therapy Group A, 60 days after the start of treatment) was 3.3 μM MDA/ml and 6.7 μM MDA/ml (2×) and 0 μM MDA/ml (7×) and 0.5 μM MDA/ml and 1.6 μM MDA/ml and the adverse reactions [5] was “No adverse reactions”.
For `CC(=O)Oc1ccccc1C(=O)O` [Aspirin, acetylsalicylic acid], the “Result (inhibition of abzymes)” value (anti-Chlamydia abzymes [1]; 10 μM of each agent) was “Positive”, the “In-vitro Inhibition” value (anti-Chlamydia abzymes [1]) was “+” and the Anti-Chlamydia abzyme activity (anti-Chlamydia abzymes [4]; Therapy Group D, IHD, aspirin 250 mg daily, before treatment) was 103 μM MDA/ml and 253 μM MDA/ml and 178 μM MDA/ml. For the same molecule, the Anti-Chlamydia abzyme activity (anti-Chlamydia abzymes [4]; Therapy Group D, 60 days after the start of treatment) was 63 μM MDA/ml and 103 μM MDA/ml and 83.2 μM MDA/ml, the “Level of activity of anti-Chlamydia abzymes” value (anti-Chlamydia abzymes [4]; individual CHD patients, 7 days after starting to take 250 mg of aspirin daily) was “undetectably low level and 20 μM MDA/ml and 0 μM MDA/ml” and the “Level of activity of anti-Chlamydia abzymes” value (anti-Chlamydia abzymes [4]; individual CHD patients, before taking aspirin) was 100 μM MDA/ml and 45 μM MDA/ml (2×). The “inhibition of the abzyme activity” value (anti-Chlamydia abzymes [4]; one CHD patient, after a week of 250 mg daily) was 5 fold, the “Level of activity of anti-Chlamydia abzymes” value (anti-Chlamydia abzymes [4]; patient F, Silent Myocardial Ischaemia, aspirin intake 250 mg daily) was 10 μM MDA/ml and the “Level of activity of anti-Chlamydia abzymes” value (anti-Chlamydia abzymes [4]; patient F, 7 days after re-starting to take 250 mg aspirin daily) was 20 μM MDA/ml. For the same molecule, the “Level of activity of anti-Chlamydia abzymes” value (anti-Chlamydia abzymes [4]; patient F, after stopping taking aspirin for 7 days) was 65 μM MDA/ml, the “individuals positive for abzymes” value (anti-Chlamydia abzymes [4]; stable angina class I) was 17% and the “individuals positive for abzymes (fraction)” value (anti-Chlamydia abzymes [4]; stable angina class I) was 1/6. The “abzyme activity of individuals reporting taking aspirin” value (anti-Chlamydia abzymes [4]; stable angina class I, individuals (r25: mean, n = 6)) was 0 (3×) and 10 and 10.0 and 5 and 45, the “individuals positive for abzymes” value (anti-Chlamydia abzymes [4]; stable angina class II) was 27% and the “individuals positive for abzymes (fraction)” value (anti-Chlamydia abzymes [4]; stable angina class II) was 4/15. For the same molecule, the “abzyme activity of individuals reporting taking aspirin” value (anti-Chlamydia abzymes [4]; stable angina class II, individuals (r25: mean, n = 15)) was 10 (2×) and 0 (4×) and 5 (4×) and 25 and 22.5 and 3.3 and 16.7 and 9.2 and 30, the “individuals positive for abzymes” value (anti-Chlamydia abzymes [4]; stable angina class III) was 60% and the “individuals positive for abzymes (fraction)” value (anti-Chlamydia abzymes [4]; stable angina class III) was 6/10. For the same molecule, the “abzyme activity of individuals reporting taking aspirin” value (anti-Chlamydia abzymes [4]; stable angina class III, individuals (r25: mean, n = 10)) was 0 (3×) and 5 and 35 and 15 and 30 and 105 and 25.5 and 20 and 45, the “individuals positive for abzymes” value (anti-Chlamydia abzymes [4]; unstable angina IV) was 86% and the “individuals positive for abzymes (fraction)” value (anti-Chlamydia abzymes [4]; unstable angina IV) was 6/7. For the same molecule, the “abzyme activity of individuals reporting taking aspirin” value (anti-Chlamydia abzymes [4]; unstable angina IV, individuals (r25: mean, n = 7)) was 0 and 37 and 90 and 100 and 86.7 and 180 and 130 and 70.
In the case of `O=C(O)c1ccccn1` [Picolinic acid], the “Result (inhibition of abzymes)” value (anti-Chlamydia abzymes [1]; 10 μM of each agent) is reported as “Positive” and the “In-vitro Inhibition” value (anti-Chlamydia abzymes [1]) is reported as “+”.
With `CC(C)(S)[C@@H](N)C(=O)O` [Penicillamine] the “Result (inhibition of abzymes)” value (anti-Chlamydia abzymes [1]; 10 μM of each agent) was “Positive” and the “In-vitro Inhibition” value (anti-Chlamydia abzymes [1]) was “+”.

Reference: US7504226B2, “Methods relating to treatment of atherosclerosis” (Cambridge Theranostics Ltd., priority 2001, dated 2009)
